Measured values from patent US9596851B1, “Method for controlling growth of red palm weevil” (priority 2015, dated 2017).
Where two headings read alike, the source gives them in different places.

What was measured:
Red Palm Weevil larvae [1] = assay: Growth indices bioassay (nutritional indices ECI, ECD, AD) on coumarin-incorporated artificial diet; format: in vivo, Rhynchophorus ferrugineus; conditions: 72 hours post exposure; for inhibition at 1000 ppm: Rhynchophorus ferrugineus, feed or water, 72 h, 1000 ppm in diet
Protocol: Impact of different doses of coumarin on the growth and development of different larval instars of red palm weevil was evaluated by growth indices bioassays. All the solutions of coumarin were prepared by dissolving in 0.05% acetone. The ingredients of artificial diet (wheat flour @ 45 g/L, corn flour @ 45 g/L, Yeast @ 45 g/L, Agar @ 17.5 g/L, Sorbic acid @ 1.6 g/L, L-Ascorbic Acid @ 4 g/L, Pharmaton (2 capsules/L), Tetracycline @ 500 mg/L) were dissolved in 1 L of coumarin solution with strength 200 mg/L, 400 mg/L, 600 mg/L, 800 mg/L and 1000 mg/L of coumarin, separately. Newly moulted 4th, 8th and 12th instar Red Palm Weevil larvae were allowed to feed on each diet separately in perforated plastic bowls. In case of control treatment, 0.05% acetone was used to prepare the diet. Twenty larvae were used to compile one replicate. Five replicates were prepared likewise. The fresh diet was daily provided to the larvae. The experimental units were incubated at 30±1° C. and 75%±5% relative humidity. Initial and final weight of the larvae and the frass produced during 72 hours post exposure was also measured. These measurements were used to determine the impact of coumarin on the nutritional indices including: Approximate Digestibility [AD=([…]−frass weight)/food ingested×100], Efficacy of conversion of digested food [ECD=weight gained by the larva/(food ingested−dry weight of frass)×100] and Efficacy of conversion of ingested food [ECI=100×dry weight gained by the larva/dry weight of food consumed].
For growth indices, measurements were made 72 hours post-exposure on dry matter basis. Larvae, frass and remaining food after 72 h were dried at 60° C. until constant weight. Growth indices data were analyzed by one way analysis of variance (ANOVA). Means were compared by Fisher's Least Significant Difference (LSD) test.

Red Palm Weevil larvae [2] = assay: Insecticidal potential of coumarin at different doses incorporated in artificial diet (mortality bioassay); format: in vivo, Rhynchophorus ferrugineus; conditions: for EC50 / LD50: artificial diet, after three days
Protocol: Insecticidal potential of coumarin at different dose concentrations (200 ppm, 400 ppm, 600 ppm, 800 ppm and 1000 ppm) was evaluated against 4th, 8th and 12th instar Red Palm Weevil larvae. The above mentioned concentrations of coumarin were prepared by dissolving coumarin in 0.05% acetone. The ingredients of artificial diet (wheat flour @ 45 g/L, corn flour @ 45 g/L, Yeast @ 45 g/L, Agar @ 17.5 g/L, Sorbic acid @ 1.6 g/L, L-Ascorbic Acid @ 4 g/L, Pharmaton (2 capsules/L), Tetracycline @ 500 mg/L) were dissolved in 1 L of coumarin solution with strength 200 mg/L, 400 mg/L, 600 mg/L, 800 mg/L and 1000 mg/L, separately. The newly moulted 4th, 8th and 12th instar Red Palm Weevil larvae were allowed to feed on each diet separately in perforated plastic bowls. In case of control treatment, 0.05% acetone was used to prepare the diet. Twenty larvae were used to compile one replicate. Five replicates were prepared likewise. The fresh diet was provided daily to the larvae. The experimental units were incubated at 30±1° C. and 75%±5% relative humidity. Abbot formula was used to correct the control mortality (Abbott, 1925). Efficacy of coumarin was determined at each dose to calculate LD50 values.

[3] = 4th, 8th and 12th instar larvae, 200-1000 ppm in diet

O=c1ccc2ccccc2o1 [coumarin]
approximate digestibility (AD) (Red Palm Weevil larvae [1]; [3]): significantly increased
inhibition at 1000 ppm (Red Palm Weevil larvae [1]; 4th instar larvae, read-out: ECD (efficacy of conversion of digested food) inhibition compared to control): 96.9%
inhibition at 1000 ppm (Red Palm Weevil larvae [1]; 4th instar larvae, read-out: ECI (efficacy of conversion of ingested food) inhibition compared to control): 95.6%
inhibition at 1000 ppm (Red Palm Weevil larvae [1]; 8th instar larvae, read-out: ECD (efficacy of conversion of digested food) inhibition compared to control): 89%
inhibition at 1000 ppm (Red Palm Weevil larvae [1]; 8th instar larvae, read-out: ECI (efficacy of conversion of ingested food) inhibition compared to control): 84%
inhibition at 1000 ppm (Red Palm Weevil larvae [1]; 12th instar larvae, read-out: ECD (efficacy of conversion of digested food) inhibition compared to control): 78.5%
inhibition at 1000 ppm (Red Palm Weevil larvae [1]; 12th instar larvae, read-out: ECI (efficacy of conversion of ingested food) inhibition compared to control): 69.4%
EC50 (Red Palm Weevil larvae [2]; 4th instar larvae): 293.77 ppm
LD50 (Red Palm Weevil larvae [2]; 4th instar larvae): 404.55 ppm
mortality versus dose (Red Palm Weevil larvae [2]; [3]): directly proportional
EC50 (Red Palm Weevil larvae [2]; 8th instar larvae): 438.32 ppm
LD50 (Red Palm Weevil larvae [2]; 8th instar larvae): 509.37 ppm
EC50 (Red Palm Weevil larvae [2]; 12th instar larvae): 559.77 ppm
LD50 (Red Palm Weevil larvae [2]; 12th instar larvae): 708.24 ppm
